# Marks after values point to notes of the source that are not given here.
# Experiments:
# human skin = test: Electrical impedance of human skin in vitro, reversibility; conditions: for impedance 1 h after the sample had been removed / impedance 4 h after the sample had been removed / impedance 8 h after the sample had been removed / impedance 12 h after the sample had been removed / impedance 24 h after the sample had been removed: 24-h application of 1% enhancer (1% Azone, 5% SDS) in 60% PG; for impedance 1 h after the sample had been removed / impedance 4 h after the sample had been removed / impedance 8 h after the sample had been removed / impedance 12 h after the sample had been removed / impedance 24 h after the sample had been removed / impedance before sample application (baseline): mean ± SEM; for fold decrease of skin impedance compared to baseline (range over enhancers and control): 24 h treatment, baseline 25–29 kΩ × cm^2; for recovery of skin impedance after sample removal: after 24-h application, followed 24 h after removal
# Description: We further investigated the direct effects of the selected enhancers on the skin barrier assessed by TEWL and the electrical impedance of human skin in vitro. TEWL is a method commonly used in dermatology[38] to study, for example, the irritant potential of chemicals, skin barrier recovery, or effect of topical formulations, and permeation enhancers[17],[21],[41]–[44]. Electrical impedance measures the opposition of the skin to alternating electrical current and is inversely proportional to the flux of ions. Thus, increased TEWL or decreased impedance indicates a barrier impairment[45],[46]. Electrical impedance or conductance measurements have been used to screen new enhancers or assess the irritation potential of compounds[13],[15],[17],[21],[32],[44],[47]–[50]. Both TEWL and impedance can distinguish between reversible and irreversible effects of enhancers on skin permeability[17],[21],[40],[44],[51].
# Human skin was mounted in Franz diffusion cells in the same way as for the permeation studies. After 1-h equilibration, basal TEWL and impedance values were recorded. Then, 1% enhancer in 60% PG, 60% PG as a negative control, 1% Azone in 60% PG, or 5% SDS in 60% PG as positive (irreversible) controls was applied on the skin (100 µl/cm^2) for 24 h. The residual sample was washed with PBS and gently blotted dry. At 1, 4, 8, 12, and 24 h after sample removal, TEWL, and impedance values were recorded. TEWL was measured using AquaFlux AF 200 (Biox Systems Ltd, London, UK), employing the condenser-chamber measurement method at 26 ± 1.0 °C and 43 ± 3% relative air humidity. Electrical impedance was measured by LCR meter 4080 (Conrad electronic, Hirschau, Germany, measuring range 20 Ω–10 MΩ, error at kΩ values < 0.5%) operated in parallel mode with an alternating frequency of 120 Hz, which was also used in our previous work[21],[44].
# Samples were removed from the skin after 24 h, and TEWL and impedance values were recorded in predetermined time intervals (1, 4, 8, 12, and 24 h after sample removal). Data are presented as the means ± SEM; n ≥ 3. * statistically significant difference compared to the baseline value before the sample application at p < 0.05. ^+ statistically significant compared to the value 1 h after the sample removal at p < 0.05.^ ≠ statistically significant compared to the control (60% PG without enhancer) at the same time point, at p < 0.05.
# [1] = tested on: HaCaT spontaneously immortalized human keratinocytes; test: MTT cell viability assay, HaCaT; format: cell-based; conditions: 48-h incubation, mean ± SEM, read-out: IC50, HaCaT cells, MTT assay
# Description: (§1) Next, the in vitro toxicities of the most promising enhancers Pro3 and Pro4, along with the parent Pro2, on spontaneously immortalized human keratinocytes (HaCaT) and Swiss albino mouse embryonic fibroblasts (3T3) were studied (Fig. 3). […] The cellular toxicities were further probed using the 3-(4,5-dimethylthiazol-2-yl)-2,5-diphenyltetrazolium bromide (MTT) uptake assay, based on the transformation of yellow MTT into purple formazan by mitochondrial reductases of living cells. The MTT assay also yielded toxicity values in tens of µM with trends to higher toxicity with a longer acyl chain length (thus also higher lipophilicity) of enhancers (Fig. 3).
# (§2) Cell viability was determined via 3-(4,5-dimethylthiazol-2-yl)-2,5-diphenyltetrazolium bromide (MTT) and neutral red (NR) uptake assays after 48-h incubation with the enhancers (see Supplementary data for details).
# (§3) Both cell lines were cultivated in Dulbecco’s modified Eagle’s medium (DMEM, Lonza, Basel, Switzerland) supplemented with 10% heat-inactivated fetal bovine serum (Merck, Darmstadt, Germany), 10 mM HEPES buffer (Merck, Darmstadt, Germany), and 1% penicillin/streptomycin solution (Lonza, Basel, Switzerland) in 75-cm^2 tissue culture flasks (TPP, Trasadingen, Switzerland) at 37°C in a humidified atmosphere of 5% CO2. Subconfluent cells were sub-cultured every 3-4 days.
# For toxicity studies, the stock-solutions of studied compounds were prepared in dimethyl sulfoxide (DMSO). […]
# After 48-h incubation with the studied enhancer, cell viability was determined via 3-(4,5-dimethylthiazol-2-yl)-2,5-diphenyltetrazolium bromide (MTT) uptake assay based on the transformation of yellow MTT into purple formazan by mitochondrial reductase activity of living cells. […] Afterward, the cell viability was assessed by optical density measurement using a Tecan Infinite 200 M plate reader (Tecan, Grödig, Austria) at λ = 570 nm.
# (§4) The viability of each experimental group was expressed as the percentage of the untreated controls incubated under the same conditions (100%).
# 3T3 mouse fibroblasts = test: Neutral red (NR) uptake cell viability assay, 3T3; format: cell-based; conditions: NIH3T3, 48-h incubation, read-out: IC50, 3T3 cells, NR assay
# Description: as §1, §2, §3
# For toxicity studies, the stock-solutions of studied compounds were prepared in dimethyl sulfoxide (DMSO). These stock samples were diluted to the required concentration by the cell culture medium immediately before adding them onto the cells. The amount of DMSO applied to the cells was kept under its intrinsic measurable toxicity limit (below 1 vol.%). […]
# Another approach used for the toxicity assessment was the neutral red (NR) uptake assay. […] The plates were shaken at rt for 30 min, and the optical density of the soluble NR was measured at λ = 540 nm using a Tecan Infinite 200 M plate reader.
# as §4
Compound,impedance 1 h after the sample had been removed (human skin),impedance 4 h after the sample had been removed (human skin),impedance 8 h after the sample had been removed (human skin),impedance 12 h after the sample had been removed (human skin),impedance 24 h after the sample had been removed (human skin),fold decrease of skin impedance compared to baseline (range over enhancers and control) (human skin),recovery of skin impedance after sample removal (human skin),impedance before sample application (baseline) (human skin) [kΩ×cm^2],IC50 [1] [µM],IC50 (3T3 mouse fibroblasts) [µM]
"CCCCCCCCCCCCOC(=O)C1CCCN1C(C)=O (stereo not drawn) [Pro2, N-acetyl proline dodecyl ester]",2.8 ± 0.1* kΩ×cm^2,6.0 ± 1.1*^≠ kΩ×cm^2,8.1 ± 1.7*^≠ kΩ×cm^2,8.6 ± 2.0*^≠ kΩ×cm^2,9.4 ± 2.6*^≠+ kΩ×cm^2,5–21 times,recovered incompletely,25.2 ± 2.1,53.2 ± 3.19,84.09 ± 0.49
CCCCCCCCCCCCOC(=O)C1CCCN1C(=O)CC (stereo not drawn) [Pro3],1.4 ± 0.8* kΩ×cm^2,7.9 ± 0.4*^≠+ kΩ×cm^2,13.1 ± 0.7*^≠+ kΩ×cm^2,15.8 ± 1.0*^≠+ kΩ×cm^2,18.6 ± 0.9*^≠+ kΩ×cm^2,5–21 times,recovered incompletely,28.9 ± 1.7,32.7 ± 2.48,57.2 ± 2.58
CCCCCCCCCCCCOC(=O)C1CCCN1C(=O)CCC (stereo not drawn) [Pro4],3.8 ± 0.8* kΩ×cm^2,11.5 ± 1.7*^+ kΩ×cm^2,18.3 ± 2.5*^+ kΩ×cm^2,21.2 ± 2.5*^+ kΩ×cm^2,23.8 ± 2.9^+ kΩ×cm^2,5–21 times,recovered to values similar to baseline within 24 h,28.9 ± 2.6,33.2 ± 2.02,56.8 ± 2.45

# Reference: publication PMC9663686, “Proline, hydroxyproline, and pyrrolidone carboxylic acid derivatives as highly efficient but reversible transdermal permeation enhancers” (Scientific Reports, 2022)
